Experimental data from ChEMBL document CHEMBL1201861, “Genomics of Drug Sensitity in Cancer screening data, Wellcome Trust Sanger Institute”.

Key:
Assay in all cases: cells
HDLM-2 = type: functional, cell-based, Homo sapiens; conditions: Homo sapiens, HDLM-2;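 further: cell viability assay measuring suppression of HDLM-2 proliferation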
Description: SANGER: Inhibition of human HDLM-2 cell growth in a cell viability assay.

KINGS-1 = type: functional, cell-based, Homo sapiens; conditions: Homo sapiens, KINGS-1;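 further: cell viability assay measuring suppression of KINGS-1 cell growth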
Description: SANGER: Inhibition of human KINGS-1 cell growth in a cell viability assay.

SK-MEL-2 = type: functional, cell-based, Homo sapiens; conditions: Homo sapiens, SK-MEL-2;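 further: growth inhibition of human SK-MEL-2 cells measured with a cell viability assay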
Description: SANGER: Inhibition of human SK-MEL-2 cell growth in a cell viability assay.

NEC8 = type: functional, cell-based, Homo sapiens; conditions: Homo sapiens, NEC8;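 further: growth inhibition of human NEC8 cells, read out by a cell viability assay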
Description: SANGER: Inhibition of human NEC8 cell growth in a cell viability assay.

MOLT-16 = type: functional, cell-based, Homo sapiens; conditions: Homo sapiens, MOLT-16;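 further: growth inhibition of human MOLT-16 cells, read out with a cell viability assay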
Description: SANGER: Inhibition of human MOLT-16 cell growth in a cell viability assay.

D-247MG = type: functional, cell-based, Homo sapiens; conditions: Homo sapiens, D-247MG
Description: SANGER: Inhibition of human D-247MG cell growth in a cell viability assay.

NTERA-2-cl-D1 = type: functional, cell-based, Homo sapiens; conditions: Homo sapiens, NTERA-2-cl-D1;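 further: inhibition of cell growth, measured with a cell viability assay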
Description: SANGER: Inhibition of human NTERA-S-cl-D1 cell growth in a cell viability assay.

SK-N-DZ = type: functional, cell-based, Homo sapiens; conditions: Homo sapiens, SK-N-DZ;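 further: growth inhibition of the cancer cell line, read out through a viability assay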
Description: SANGER: Inhibition of human SK-N-DZ cell growth in a cell viability assay.

COLO-320-HSR = type: functional, cell-based, Homo sapiens; conditions: Homo sapiens, COLO-320-HSR;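 further: growth inhibition of COLO-320-HSR cells, determined with a cell viability assay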
Description: SANGER: Inhibition of human COLO-320-HSR cell growth in a cell viability assay.

EKVX = type: functional, cell-based, Homo sapiens; conditions: Homo sapiens, EKVX;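 further: growth inhibition of human EKVX cells, read out with a cell viability assay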
Description: SANGER: Inhibition of human EKVX cell growth in a cell viability assay.

OS-RC-2 = type: functional, cell-based, Homo sapiens; conditions: Homo sapiens, OS-RC-2;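 further: growth inhibition of human OS-RC-2 cells, measured by a cell viability assay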
Description: SANGER: Inhibition of human OS-RC-2 cell growth in a cell viability assay.

ES5 = type: functional, cell-based, Homo sapiens; conditions: Homo sapiens, ES5;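 further: growth inhibition of human ES5 cells, read out by a cell viability assay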
Description: SANGER: Inhibition of human ES5 cell growth in a cell viability assay.

MFH-ino = type: functional, cell-based, Homo sapiens; conditions: Homo sapiens, MFH-ino;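 further: growth inhibition of human MFH-ino cells, read out by a cell viability assay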
Description: SANGER: Inhibition of human MFH-ino cell growth in a cell viability assay.

no-10 = type: functional, cell-based, Homo sapiens; conditions: Homo sapiens;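 further: growth inhibition of no-10 cells, read out with a cell viability assay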
Description: SANGER: Inhibition of human no-10 cell growth in a cell viability assay.

NCI-H226 = type: functional, cell-based, Homo sapiens; conditions: Homo sapiens, NCI-H226;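 further: cell viability read-out used to gauge growth inhibition of the cells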
Description: SANGER: Inhibition of human NCI-H226 cell growth in a cell viability assay.

DB = type: functional, cell-based, Homo sapiens; conditions: Homo sapiens, DB
Description: SANGER: Inhibition of human DB cell growth in a cell viability assay.

LU-139 = type: functional, cell-based, Homo sapiens; conditions: Homo sapiens, LU-139
Description: SANGER: Inhibition of human LU-139 cell growth in a cell viability assay.

NCI-H720 = type: functional, cell-based, Homo sapiens; conditions: Homo sapiens, NCI-H720;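 further: growth inhibition of human NCI-H720 cells determined by a cell viability assay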
Description: SANGER: Inhibition of human NCI-H720 cell growth in a cell viability assay.

MFM-223 = type: functional, cell-based, Homo sapiens; conditions: Homo sapiens, MFM-223
Description: SANGER: Inhibition of human MFM-223 cell growth in a cell viability assay.

NCI-H446 = type: functional, cell-based, Homo sapiens; conditions: Homo sapiens, NCI-H446;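 further: growth inhibition of NCI-H446 cells determined by a cell viability assay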
Description: SANGER: Inhibition of human NCI-H446 cell growth in a cell viability assay.

GOTO = type: functional, cell-based, Homo sapiens; conditions: Homo sapiens, GOTO;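 further: growth inhibition of GOTO cells, read out by a cell viability assay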
Description: SANGER: Inhibition of human GOTO cell growth in a cell viability assay.

NCI-H1648 = type: functional, cell-based, Homo sapiens; conditions: Homo sapiens, NCI-H1648;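 further: cell viability assay measuring inhibition of NCI-H1648 cell growth, from the Sanger screening data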
Description: SANGER: Inhibition of human NCI-H1648 cell growth in a cell viability assay.

IST-MES1 = type: functional, cell-based, Homo sapiens; conditions: Homo sapiens, IST-MES1;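 further: growth inhibition of IST-MES1 cells, measured with a cell viability assay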
Description: SANGER: Inhibition of human IST-MES1 cell growth in a cell viability assay.

NCI-H510A = type: functional, cell-based, Homo sapiens; conditions: Homo sapiens, NCI-H510A;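 further: growth inhibition of NCI-H510A cells, read out with a cell viability assay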
Description: SANGER: Inhibition of human NCI-H510A cell growth in a cell viability assay.

GAK = type: functional, cell-based, Homo sapiens; conditions: Homo sapiens, GAK;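 further: cell growth inhibition read out by a cell viability assay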
Description: SANGER: Inhibition of human GAK cell growth in a cell viability assay.

JVM-3 = type: functional, cell-based, Homo sapiens; conditions: Homo sapiens, JVM-3;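 further: growth inhibition of human JVM-3 cells, read out with a cell viability assay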
Description: SANGER: Inhibition of human JVM-3 cell growth in a cell viability assay.

OMC-1 = type: functional, cell-based, Homo sapiens; conditions: Homo sapiens, OMC-1;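 further: growth inhibition of the OMC-1 cell line, measured by a cell viability assay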
Description: SANGER: Inhibition of human OMC-1 cell growth in a cell viability assay.

L-363 = type: functional, cell-based, Homo sapiens; conditions: Homo sapiens, L-363
Description: SANGER: Inhibition of human L-363 cell growth in a cell viability assay.

CTB-1 = type: functional, cell-based, Homo sapiens; conditions: Homo sapiens, CTB-1
Description: SANGER: Inhibition of human CTB-1 cell growth in a cell viability assay.

MZ2-MEL = type: functional, cell-based, Homo sapiens; conditions: Homo sapiens, MZ2-MEL;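 further: growth inhibition of MZ2-MEL cells read out with a cell viability assay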
Description: SANGER: Inhibition of human MZ2-MEL cell growth in a cell viability assay.

HuTu80 = type: functional, cell-based, Homo sapiens, HUTU-80; conditions: Homo sapiens, HuTu80;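 further: growth inhibition of HuTu80 human cells, determined with a cell viability readout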
Description: SANGER: Inhibition of human HUTU-80 cell growth in a cell viability assay.

TE-12 = type: functional, cell-based, Homo sapiens; conditions: Homo sapiens, TE-12;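 further: growth inhibition of TE-12 cells, read out by a cell viability assay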
Description: SANGER: Inhibition of human TE-12 cell growth in a cell viability assay.

UACC-257 = type: functional, cell-based, Homo sapiens; conditions: Homo sapiens, UACC-257
Description: SANGER: Inhibition of human UACC-257 cell growth in a cell viability assay.

JAR = type: functional, cell-based, Homo sapiens; conditions: Homo sapiens, JAR;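 further: growth inhibition of human JAR cells determined with a cell viability assay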
Description: SANGER: Inhibition of human JAR cell growth in a cell viability assay.

MZ7-mel = type: functional, cell-based, Homo sapiens; conditions: Homo sapiens, MZ7-mel;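 further: growth inhibition of human MZ7-mel cells, measured by a cell viability assay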
Description: SANGER: Inhibition of human MZ7-mel cell growth in a cell viability assay.

DEL = type: functional, cell-based, Homo sapiens; conditions: Homo sapiens, DEL;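 further: growth inhibition of the human DEL cell line, read out with a cell viability assay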
Description: SANGER: Inhibition of human DEL cell growth in a cell viability assay.

A388 = type: functional, cell-based, Homo sapiens; conditions: Homo sapiens, A388;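 further: growth inhibition of human A388 cells, read out with a cell viability assay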
Description: SANGER: Inhibition of human A388 cell growth in a cell viability assay.

ACN = type: functional, cell-based, Homo sapiens; conditions: Homo sapiens, ACN;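 further: growth inhibition of the human ACN cell line, read out via cell viability testing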
Description: SANGER: Inhibition of human ACN cell growth in a cell viability assay.

GI-1 = type: functional, cell-based, Homo sapiens; conditions: Homo sapiens, GI-1;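 further: growth inhibition of human GI-1 cells, measured with a cell viability readout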
Description: SANGER: Inhibition of human GI-1 cell growth in a cell viability assay.

LS-123 = type: functional, cell-based, Homo sapiens; conditions: Homo sapiens, LS-123
Description: SANGER: Inhibition of human LS-123 cell growth in a cell viability assay.

KNS-42 = type: functional, cell-based, Homo sapiens; conditions: Homo sapiens, KNS-42;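 further: growth inhibition of KNS-42 cells, read out with a cell viability assay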
Description: SANGER: Inhibition of human KNS-42 cell growth in a cell viability assay.

MEG-01 = type: functional, cell-based, Homo sapiens; conditions: Homo sapiens, MEG-01;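 further: growth inhibition of MEG-01 cells, read out by a cell viability assay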
Description: SANGER: Inhibition of human MEG-01 cell growth in a cell viability assay.

LC-2-ad = type: functional, cell-based, Homo sapiens; conditions: Homo sapiens, LC-2-ad;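 further: growth inhibition of human LC-2-ad cells, read out with a cell viability assay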
Description: SANGER: Inhibition of human LC-2-ad cell growth in a cell viability assay.

SHP77 = type: functional, cell-based, Homo sapiens, SHP-77; conditions: Homo sapiens, SHP77;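 further: growth inhibition of human SHP-77 cells measured by a cell viability assay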
Description: SANGER: Inhibition of human SHP-77 cell growth in a cell viability assay.

SW872 = type: functional, cell-based, Homo sapiens; conditions: Homo sapiens, SW872;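 further: growth inhibition of SW872 cells, read out by a viability assay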
Description: SANGER: Inhibition of human SW872 cell growth in a cell viability assay.

OCI-AML2 = type: functional, cell-based, Homo sapiens; conditions: Homo sapiens, OCI-AML2;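 further: growth inhibition of OCI-AML2 cells, read out with a cell viability assay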
Description: SANGER: Inhibition of human OCI-AML2 cell growth in a cell viability assay.

EW-1 = type: functional, cell-based, Homo sapiens; conditions: Homo sapiens, EW-1;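 further: growth inhibition of the human EW-1 cell line, read out by a cell viability assay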
Description: SANGER: Inhibition of human EW-1 cell growth in a cell viability assay.

SMILES: COc1cc2ncn(-c3cc(OCc4ccccc4C(F)(F)F)c(C(N)=O)s3)c2cc1OC [GW843682X]
- IC50 (HDLM-2): 69.5 nM
- IC50 (KINGS-1): 149 nM
- IC50 (SK-MEL-2): > 256 nM
- IC50 (NEC8): 48.7 nM
- IC50 (MOLT-16): 31.5 nM
- IC50 (D-247MG): > 256 nM
- IC50 (NTERA-2-cl-D1): 17.4 nM
- IC50 (SK-N-DZ): 37.4 nM
- IC50 (COLO-320-HSR): 28.1 nM
- IC50 (EKVX): > 256 nM
- IC50 (OS-RC-2): 188 nM
- IC50 (ES5): > 256 nM
- IC50 (MFH-ino): 35.5 nM
- IC50 (no-10): 20.7 nM
- IC50 (NCI-H226): > 256 nM
- IC50 (DB): > 256 nM
- IC50 (LU-139): 65.6 nM
- IC50 (NCI-H720): > 256 nM
- IC50 (MFM-223): > 256 nM
- IC50 (NCI-H446): 12 nM
- IC50 (GOTO): > 256 nM
- IC50 (NCI-H1648): 14.4 nM
- IC50 (IST-MES1): 159 nM
- IC50 (NCI-H510A): 16.6 nM
- IC50 (GAK): 185 nM
- IC50 (JVM-3): > 256 nM
- IC50 (OMC-1): > 256 nM
- IC50 (L-363): 81.2 nM
- IC50 (CTB-1): > 256 nM
- IC50 (MZ2-MEL): 126 nM
- IC50 (HuTu80): 22.3 nM
- IC50 (TE-12): 27.3 nM
- IC50 (UACC-257): 130 nM
- IC50 (JAR): 56.8 nM
- IC50 (MZ7-mel): 83.9 nM
- IC50 (DEL): 19.9 nM
- IC50 (A388): 15.2 nM
- IC50 (ACN): 33.3 nM
- IC50 (GI-1): 7.3 nM
- IC50 (LS-123): 193 nM
- IC50 (KNS-42): 24.7 nM
- IC50 (MEG-01): 41.9 nM
- IC50 (LC-2-ad): 15.6 nM
- IC50 (SHP77): 57.3 nM
- IC50 (SW872): 27.7 nM
- IC50 (OCI-AML2): 49.9 nM
- IC50 (EW-1): 16.8 nM

SMILES: CC(=O)O[C@H]1C(=O)[C@@]2(C)[C@H]([C@H](OC(=O)c3ccccc3)[C@]3(O)C[C@H](OC(=O)[C@H](O)[C@@H](NC(=O)c4ccccc4)c4ccccc4)C(C)=C1C3(C)C)[C@]1(OC(C)=O)CO[C@@H]1C[C@@H]2O [PACLITAXEL]
- IC50 (HDLM-2): 43.9 nM
- IC50 (KINGS-1): 23.6 nM
- IC50 (SK-MEL-2): > 102 nM
- IC50 (NEC8): 52.9 nM
- IC50 (MOLT-16): 21.5 nM
- IC50 (D-247MG): > 102 nM
- IC50 (NTERA-2-cl-D1): 2.09 nM
- IC50 (SK-N-DZ): 73.1 nM
- IC50 (COLO-320-HSR): > 102 nM
- IC50 (EKVX): > 102 nM
- IC50 (OS-RC-2): 77.5 nM
- IC50 (ES5): > 102 nM
- IC50 (MFH-ino): 2.68 nM
- IC50 (no-10): 3.62 nM
- IC50 (NCI-H226): > 102 nM
- IC50 (DB): > 102 nM
- IC50 (LU-139): 59.9 nM
- IC50 (NCI-H720): > 102 nM
- IC50 (MFM-223): > 102 nM
- IC50 (NCI-H446): 21.1 nM
- IC50 (GOTO): > 102 nM
- IC50 (NCI-H1648): 4.69 nM
- IC50 (IST-MES1): 79.1 nM
- IC50 (NCI-H510A): 6.65 nM
- IC50 (GAK): 102 nM
- IC50 (JVM-3): > 102 nM
- IC50 (OMC-1): > 102 nM
- IC50 (L-363): 13.5 nM
- IC50 (CTB-1): 78.1 nM
- IC50 (MZ2-MEL): 47.4 nM
- IC50 (HuTu80): 1.68 nM
- IC50 (TE-12): 33.1 nM
- IC50 (UACC-257): 48.5 nM
- IC50 (JAR): 29.5 nM
- IC50 (MZ7-mel): 40.4 nM
- IC50 (DEL): 8.45 nM
- IC50 (A388): 8.74 nM
- IC50 (ACN): 3.16 nM
- IC50 (GI-1): 13.7 nM
- IC50 (LS-123): 16.6 nM
- IC50 (KNS-42): 8.91 nM
- IC50 (MEG-01): 29.8 nM
- IC50 (LC-2-ad): 0.317 nM
- IC50 (SHP77): > 102 nM
- IC50 (SW872): 42.1 nM
- IC50 (OCI-AML2): 8.52 nM
- IC50 (EW-1): 3.71 nM

SMILES: COc1cc(-c2nn([C@H]3CC[C@H](N4CCN(C(C)=O)CC4)CC3)c3ncnc(N)c23)ccc1NC(=O)c1cc2ccccc2n1C
- IC50 (HDLM-2): > 5120 nM
- IC50 (KINGS-1): > 5120 nM
- IC50 (SK-MEL-2): > 5120 nM
- IC50 (NEC8): > 5120 nM
- IC50 (MOLT-16): > 5120 nM
- IC50 (D-247MG): > 5120 nM
- IC50 (NTERA-2-cl-D1): > 5120 nM
- IC50 (SK-N-DZ): > 5120 nM
- IC50 (COLO-320-HSR): > 5120 nM
- IC50 (EKVX): > 5120 nM
- IC50 (OS-RC-2): 755 nM
- IC50 (ES5): > 5120 nM
- IC50 (MFH-ino): 1160 nM
- IC50 (no-10): 2180 nM
- IC50 (NCI-H226): > 5120 nM
- IC50 (DB): > 5120 nM
- IC50 (LU-139): > 5120 nM
- IC50 (NCI-H720): > 5120 nM
- IC50 (MFM-223): > 5120 nM
- IC50 (NCI-H446): > 5120 nM
- IC50 (GOTO): > 5120 nM
- IC50 (NCI-H1648): 387 nM
- IC50 (IST-MES1): 1400 nM
- IC50 (NCI-H510A): 4760 nM
- IC50 (GAK): > 5120 nM
- IC50 (JVM-3): > 5120 nM
- IC50 (OMC-1): > 5120 nM
- IC50 (L-363): > 5120 nM
- IC50 (CTB-1): > 5120 nM
- IC50 (MZ2-MEL): > 5120 nM
- IC50 (HuTu80): 1500 nM
- IC50 (TE-12): 404 nM
- IC50 (UACC-257): > 5120 nM
- IC50 (JAR): > 5120 nM
- IC50 (MZ7-mel): > 5120 nM
- IC50 (DEL): > 5120 nM
- IC50 (A388): 4340 nM
- IC50 (ACN): > 5120 nM
- IC50 (GI-1): > 5120 nM
- IC50 (LS-123): > 5120 nM
- IC50 (KNS-42): > 5120 nM
- IC50 (MEG-01): 169 nM
- IC50 (LC-2-ad): 483 nM
- IC50 (SHP77): > 5120 nM
- IC50 (SW872): 452 nM
- IC50 (OCI-AML2): 5100 nM
- IC50 (EW-1): > 5120 nM
